Patent US20210244791A1, “APPLICATION OF PEDF-DERIVED SHORT PEPTIDES IN TENDON HEALING” (BRIM Biotechnology, Inc., priority 2018, published 2021)

System: injured Achilles tendon
Test: Rat model of Achilles tendon injury, histology (H&E) and histopathological score
Format: in vivo
Details: 1 week postoperative
From the text: Representative micrographs of the histopathological analysis by H&E staining. H&E-stained sections in higher magnification show uninjured tendon tissue with a relative scarcity of cells among the collagen fibers.
(A) Representative H&E-stained longitudinal sections in higher magnification show the nuclei morphologies in uninjured tendon tissue and injured tendon treated with vehicle/alginate and 29-mer/alginate for 1 week. (B) Histopathological scores. Total scores were determining by fiber structure, fiber arrangement, rounding of the nuclei, resident cell density and inflammation (infiltration of inflammatory cells, neovascularization and fatty deposits). Data are reported as mean±SE. *P<0.0005 versus vehicle/alginate-treated tendon; ^#P<0.05 versus 29-mer/alginate-treated tendon.
To investigate the effects of the 29-mer peptide on tendon healing, a rat model of Achilles tendon injury was established as reported by Orhan et al. (The effect of extracorporeal shock waves on a rat model of injury to tendon Achilles. A histological and biomechanical study. J. Bone Joint Surg. Br. 2004;.86(4):.613-618). Adult 10-week-old male Sprague-Dawley rats (initial body weight=312±11 g) were anesthetized by an intraperitoneal injection of xylazine (10 mg/kg). Then, the left tendo Achilles injury was created by full-thickness insertion of an 18-G needle through tendo Achilles 1 cm proximal to the calcaneum attachment site. This created a horizontal wound that was flanked by intact tendon tissue to prevent the retraction of severed ends. The skin incision was closed after the wound was irrigated with sterile saline. Treatments were applied to area around the tendon lesion by subcutaneous injection with 150 μl of alginate gel mixed with 100 μM 29-mer or DMSO vehicle (six rats per experimental condition).
The tendon and surrounding soft tissue were dissected. Specimens were fixed in a 4% paraformaldehyde (PFA) solution and then were embedded in paraffin blocks. Sections (5 μm in thickness) were longitudinally cut and stained with hematoxylin and eosin (H&E) or used for immunohistochemical examination. 36 sections per tendon were carefully prepared so as to include the most severely degenerated area. Images were captured using a Nikon Eclipse 80i microscope (Nikon Corporation, Tokyo, Japan) equipped with a Leica DC 500 camera (Leica Microsystems, Wetzlar, Germany). Four sections of each sample containing injured tendon tissues were selected and evaluated by two blinded observers to assess the tendon morphology according to a modified semi-quantitative grading score from 0 to 3 proposed by Chen et al. (Tendon derived stem cells promote platelet-rich plasma healing in collagenase-induced rat Achilles tendinopathy. Cell Physiol. Biochem., 2014; 34(6): 2153-68). The scores analyzed the fiber structure (0-3), fiber arrangement (0-3), rounding of the nuclei (0-3), resident cell density (0-3), and inflammation (0-3; infiltration of inflammatory cells, neovascularization and fatty deposits). According to this grading system, a perfectly normal tendon obtained a score of 0, whereas a score of 15 was assigned to maximally abnormal tendons.
To investigate the therapeutic effect of the 29-mer peptide on injured tendon, a rat model of Achilles tendon injury was established by full-thickness insertion of an 18-G needle through the tendon Achilles. We delivered the 29-mer in a 150 μl alginate gel, which releases 90% loaded 29-mer in 5 days as described in a previous protocol (Ho et al., PEDF-derived peptide promotes skeletal muscle regeneration through its mitogenic effect on muscle progenitor cells. Am J Physiol. Cell Physiol. 2015 Aug. 1; 309(3): C159-68).

SLGAEQRTESIIHRALYYDLISSPDIHGT (listed as Homo sapiens) [29-mer, PEDF-derived short peptide, human PEDF residues 93-121]
total histopathological score (peptide/alginate gel, 0 = normal tendon, 15 = maximally abnormal, vehicle/alginate 12.7±0.6): 7.9±0.4
histological appearance of treated tendon (H&E staining) (subcutaneous 150 μl alginate gel with 100 μM peptide): uniform appearance of well-aligned collagen fibers
